The numbers were not newly measured in patent US11865201B2, “Product for dyeing keratinous material, containing aminosilicone, a chromophoric compound and ethoxylated fatty acid ester” (Henkel AG & Co. KGaA, priority 2019, dated 2024), which cites them from elsewhere.

The conditions of this data set: 25° C.

For `Nc1cc(S(=O)(=O)[O-])cc2cc(S(=O)(=O)[O-])c(N=Nc3ccccc3)c(O)c12.[Na+].[Na+]` [Acid Red 33, diantrium salt of 5-amino-4-hydroxy-3-(phenylazo)-naphthalene-2,7-disulphonate], the solubility in water is 2500 µg/mL. As for `CCN(Cc1cccc(S(=O)(=O)[O-])c1)c1ccc(C(=C2C=CC(=[N+](CC)Cc3cccc(S(=O)(=O)[O-])c3)C=C2)c2ccccc2S(=O)(=O)[O-])cc1.[Na+].[Na+]` [Acid Blue 9], the solubility in water result was “more than 20 wt. %”. As for `O=S(=O)([O-])c1ccc(N=Nc2c(O)ccc3ccccc23)cc1.[Na+]` [Acid Orange 7, sodium salt of 4-[(2-hydroxy-1-naphthyl)azo]benzene sulphonate], the solubility in water entry is reported as “more than 7 g/L”.

As for `O=C([O-])C1=NN(c2ccc(S(=O)(=O)[O-])cc2)C(=O)C1N=Nc1ccc(S(=O)(=O)[O-])cc1.[Na+].[Na+].[Na+]` (centres unmarked) [Acid Yellow 23, trisodium salt of 4,5-dihydro-5-oxo-1-(4-sulfophenyl)-4-((4-sulfophenyl)azo)-1H-pyrazole-3-carboxylic acid], the “solubility in water (in words)” value is given as “highly soluble in water”. On to `O=C([O-])c1c(Cl)c(Cl)c(Cl)c(Cl)c1-c1c2c(Br)cc(=O)c(Br)c-2oc2c(Br)c(O)cc(Br)c12.O=C([O-])c1c(Cl)c(Cl)c(Cl)c(Cl)c1-c1c2c(Br)cc(=O)c(Br)c-2oc2c(Br)c(O)cc(Br)c12.[Na+].[Na+]` [Acid Red 92, disodium salt of 3,4,5,6-tetrachloro-2-(1,4,5,8-tetrabromo-6-hydroxy-3-oxoxanthen-9-yl)benzoic acid], for which the solubility in water result was “greater than 10 g/L”.
